Measured values reported in patent US20260174671A1, “COMPOSITION FOR ALLEVIATING OR PREVENTING SYMPTOMS OF ALLERGIC RHINITIS OR ALLERGIC CONJUNCTIVITIS” (Nissui Corporation, priority 2022, published 2026).

Assays:
[1] = tested on: adult males and females who had experienced nasal and/or eye discomfort due to pollen; assay: Severity classification of allergic rhinitis symptoms, placebo-controlled intake test during the pollen season; type: in vivo, human
Source text: The severity classification of allergic rhinitis symptoms refers to a method of classifying the severity based on Practical Guideline for the Management of Allergic Rhinitis in Japan 2020 (Committee of the Practical Guideline for the Management of Allergic Rhinitis). Specifically, each evening, the subject himself/herself selects the one that best describes the severity of the day on the subjective symptoms on each item listed in the table below.
The subjects were adult males and females who had experienced nasal and/or eye discomfort due to pollen for the past 2 years.
The remaining 36 subjects were randomized and divided into a DGLA administration group (intervention group; hereinafter referred to as DGLA group) with 18 subjects and a placebo administration group (control group; hereinafter referred to as placebo group) with 18 subjects. 3 subjects in the placebo group became untraceable during the testing. Therefore, the analysis was performed on 18 subjects in the DGLA group and 15 subjects in the placebo group.
The DGLA group: DGLA-containing oil (DGLA of 31.4% by weight) was taken at 1,000 mg/day for 15 weeks. The DGLA of 314 mg/day is to be taken in terms of free fatty acid. The DGLA-containing oil was obtained by the method described in Japanese Patent No. 3354581. Specifically, to 200 g of dry cells of a filamentous fungus (Mortierella alpina), 500 mL of hexane was added, the mixture was stirred, and the filtration was repeated three times to extract oil, and then the hexane layer was evaporated to obtain DGLA-containing oil. The subjects took 4 capsules filled with this oil per day.
The intake duration of the diet for testing was 15 weeks from January 8th to Apr. 23, 2022. […]
(§1) The mean±SD of the change in score from the start of the testing was calculated for each group at each time point, and statistical analysis was conducted. […]

dermatitis model animals = conditions: intake of DGLA; PTL 2; cited from earlier work
[2] = tested on: adult males and females who had experienced nasal and/or eye discomfort due to pollen; assay: Japanese Allergic Rhinitis Standard Quality of Life Questionnaire (JRQLQ), placebo-controlled intake test during the pollen season; type: in vivo, human
Source text: The JRQLQ is a questionnaire created by Okuda et al. to assess the impact of allergic rhinitis on quality of life (QOL) (Minoru Okuda et al.: Japanese Rhino-conjunctivitis Quality-of-Life Questionnaire (2002 edition), Committee of the Japanese Rhino-conjunctivitis Quality-of-Life Questionnaire, Allergy 2003; 52:21-56). […] In the JRQLQ, the subject himself/herself selects the one that best describes the severity of the worst nasal and eye symptoms the subject has experienced in the past 1-2 weeks on the items listed in the table below.
Also, as shown in Examples to be described later, the composition of the present invention can reduce the scores of nasal and eye symptoms in the JRQLQ, in particular, or suppress the increase of the score, compared to the placebo group. In the present invention, the phrase the “score of nasal and eye symptoms in the JRQLQ” means the sum of the scores of runny nose, sneezing, blocked nose, itchy nose, itchy eyes, and watery eyes in the JRQLQ. In a preferred embodiment of the present invention, the composition of the present invention can be used for reducing the scores of nasal and eye symptoms in the JRQLQ, or suppressing the increase of the score, compared to the placebo group. […]
as §1

[3] = tested on: atopic dermatitis model mice; conditions: PTL 4, cited from earlier work
[4] = tested on: splenocytes from the model mice; conditions: PTL 4; cited from earlier work

Structure (SMILES): CCCCCC=CCC=CCC=CCCCCCCC(=O)O [DGLA, 8,11,14-eicosatrienoic acid]
- sneezing attack score in the severity classification of allergic rhinitis symptoms, change from the start of testing (week 0) ([1]; DGLA group (n=18) vs placebo group (n=15), DGLA-containing oil 1,000 mg/day (DGLA 314 mg/day) oral, 15 weeks, p<0.01, FIG. 1): significantly reduced
- nasal congestion score in the severity classification of allergic rhinitis symptoms, change from the start of testing (week 0) ([1]; DGLA group (n=18) vs placebo group (n=15), DGLA-containing oil 1,000 mg/day (DGLA 314 mg/day) oral, 15 weeks, p<0.05, FIG. 2): significantly reduced
- stratification analysis of the DGLA group, severity classification items (sneezing attack, nasal discharge, nasal congestion, itchy eyes, tearing) ([1]; Group H (score 1 or higher at week 0) vs Group L (score 0), no significant difference, P=0.249-0.712, FIGS. 4 to 8): all the mean values for the items of Group H were lower than those of Group L
- dermatitis (dermatitis model animals): suppresses dermatitis
- JRQLQ nasal and eye symptom score (sum of runny nose, sneezing, blocked nose, itchy nose, itchy eyes, watery eyes), change from week 0 ([2]; DGLA group (n=18) vs placebo group (n=15), DGLA-containing oil 1,000 mg/day (DGLA 314 mg/day) oral, 15 weeks, p<0.1, FIG. 3): tended to be reduced
- stratification analysis of the DGLA group, JRQLQ items (runny nose, sneezing, blocked nose, itchy nose, itchy eyes, watery eyes) ([2]; Group H (score 1 or higher at week 0) vs Group L (score 0), no significant difference, P=0.084-0.59, FIGS. 9 to 14): all the mean values for the items of Group H were lower than those of Group L

Structure (SMILES): CCCCC/C=C\C/C=C\C/C=C\CCCCC(=O)O [GLA, γ-linolenic acid]
- IgE production ([3]; orally administered for two months, atopic dermatitis-affected mice with hyper IgE-emia): suppression of IgE production was not observed
- IgE production in vitro [4]: suppressed IgE production

Structure (SMILES): CCCCC/C=C\C/C=C\C/C=C\CCCCC(=O)OCC [γ-linolenic acid (GLA) ethyl ester]
- hyper IgE production ([3]; oral administration, atopic dermatitis model mice): suppressed hyper IgE production
